26 compounds from patent publication US9676760B2, “Fused heterocyclic compounds as ion channel modulators” (Gilead Sciences, Inc., priority 2011, dated 2017) can be followed below.

wild-type human cardiac sodium channel, hNav1.5, sequence (Q14524 whole entry): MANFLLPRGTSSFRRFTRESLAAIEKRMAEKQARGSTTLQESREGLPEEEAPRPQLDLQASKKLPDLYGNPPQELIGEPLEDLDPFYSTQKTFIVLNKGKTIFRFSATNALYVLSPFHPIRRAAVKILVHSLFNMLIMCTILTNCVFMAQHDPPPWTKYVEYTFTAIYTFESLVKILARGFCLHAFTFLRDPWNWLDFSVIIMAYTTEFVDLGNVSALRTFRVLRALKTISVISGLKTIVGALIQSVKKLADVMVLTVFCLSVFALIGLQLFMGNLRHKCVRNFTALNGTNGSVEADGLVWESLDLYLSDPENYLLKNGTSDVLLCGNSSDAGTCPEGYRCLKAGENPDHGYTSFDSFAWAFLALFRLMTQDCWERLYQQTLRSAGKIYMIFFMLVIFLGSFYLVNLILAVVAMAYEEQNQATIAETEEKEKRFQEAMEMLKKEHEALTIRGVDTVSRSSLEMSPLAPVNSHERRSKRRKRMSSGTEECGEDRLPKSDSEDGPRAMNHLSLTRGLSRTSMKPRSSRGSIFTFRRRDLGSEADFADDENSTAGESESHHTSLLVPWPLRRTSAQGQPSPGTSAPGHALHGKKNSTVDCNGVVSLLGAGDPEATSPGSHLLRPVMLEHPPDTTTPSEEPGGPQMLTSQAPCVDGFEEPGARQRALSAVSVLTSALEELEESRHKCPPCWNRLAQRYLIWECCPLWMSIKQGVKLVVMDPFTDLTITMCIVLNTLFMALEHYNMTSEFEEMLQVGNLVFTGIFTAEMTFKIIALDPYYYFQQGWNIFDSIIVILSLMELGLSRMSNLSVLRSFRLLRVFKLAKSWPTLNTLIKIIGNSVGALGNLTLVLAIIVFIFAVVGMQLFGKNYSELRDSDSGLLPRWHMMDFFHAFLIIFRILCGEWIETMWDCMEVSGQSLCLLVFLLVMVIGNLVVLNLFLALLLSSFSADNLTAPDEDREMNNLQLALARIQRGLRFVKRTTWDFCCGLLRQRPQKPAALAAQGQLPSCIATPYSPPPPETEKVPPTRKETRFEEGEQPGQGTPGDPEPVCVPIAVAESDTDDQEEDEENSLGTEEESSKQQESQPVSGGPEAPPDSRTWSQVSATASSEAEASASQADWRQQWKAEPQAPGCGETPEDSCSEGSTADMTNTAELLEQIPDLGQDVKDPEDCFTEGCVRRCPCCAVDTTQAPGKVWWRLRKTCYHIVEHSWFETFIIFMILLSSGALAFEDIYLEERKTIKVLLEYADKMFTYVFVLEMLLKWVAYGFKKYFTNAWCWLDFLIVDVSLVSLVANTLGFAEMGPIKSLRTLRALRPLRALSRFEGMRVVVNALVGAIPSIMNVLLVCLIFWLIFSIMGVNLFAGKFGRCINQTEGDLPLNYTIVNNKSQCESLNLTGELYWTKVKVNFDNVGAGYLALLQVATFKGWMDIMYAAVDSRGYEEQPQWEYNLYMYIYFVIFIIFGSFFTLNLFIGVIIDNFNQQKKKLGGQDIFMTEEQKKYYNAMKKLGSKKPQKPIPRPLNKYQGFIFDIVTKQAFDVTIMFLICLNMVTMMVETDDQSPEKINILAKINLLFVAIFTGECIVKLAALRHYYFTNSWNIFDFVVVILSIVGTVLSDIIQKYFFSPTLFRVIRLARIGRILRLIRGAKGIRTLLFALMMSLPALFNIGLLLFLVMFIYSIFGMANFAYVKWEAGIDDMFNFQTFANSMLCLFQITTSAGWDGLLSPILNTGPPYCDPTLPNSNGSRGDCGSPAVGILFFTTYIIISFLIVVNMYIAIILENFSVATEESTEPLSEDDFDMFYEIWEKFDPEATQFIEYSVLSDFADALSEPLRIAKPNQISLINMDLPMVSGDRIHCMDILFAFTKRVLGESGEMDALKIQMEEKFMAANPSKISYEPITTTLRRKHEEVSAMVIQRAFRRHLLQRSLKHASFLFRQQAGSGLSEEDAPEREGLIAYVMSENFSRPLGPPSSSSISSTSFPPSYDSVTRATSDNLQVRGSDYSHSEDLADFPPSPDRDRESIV

One experiment concerns the target wild-type human cardiac sodium channel, hNav1.5 (Homo sapiens, UniProt Q14524). Kind of experiment: Late INa screening assay (QPatch whole cell patch clamp, HEK293). The experiment is classed as cell-based. Particulars: 10 μM Tefluthrin activating late INa. Here is the method: The late sodium current (Late INa) and peak sodium current (Peak INa) assays are performed on an automated electrophysiology platform, QPatch 16× (Sophion Bioscience, Copenhagen, Denmark), which uses the whole cell patch clamp technique to measure currents through the cell membrane of up to 16 cells at a time. The assay uses an HEK293 (human embryonic kidney) cell line heterologously expressing the wild-type human cardiac sodium channel, hNav1.5, purchased from Millipore (Billerica, Mass.). No beta subunits were coexpressed with the Na channel alpha subunit. Cells are maintained with standard tissue culture procedures and stable channel expression is maintained with 400 μg/mL Geneticin in the culture medium. Cells isolated for use on QPatch are incubated for 5 minutes in Detachin 1×(Genlantis, San Diego, USA) at 37° C. to ensure that 80-90% of the cells are single and not part of a cell cluster. Experiments are carried out at 23-25° C.
For both the Late INa and Peak INa assays, series resistance compensation is set to 100% and series resistance and whole-cell compensation are performed automatically. Currents are digitized at 25 kHz and low-pass filtered at 12 kHz and 10 kHz for the late and peak INa assays, respectively. Currents through open sodium channels are automatically recorded and stored in the Sophion Bioscience Oracle database (Sophion Bioscience, Copenhagen, Denmark). Analysis is performed using QPatch Assay and database software and data are compiled in Excel.
Compound stocks are routinely made by the Gilead Sample Bank in plastic vials to 10 mM in dimethyl sulfoxide (DMSO). In some cases, when compounds are not soluble in DMSO, they are made in 100% ethanol. Stocks are sonicated as necessary. The extracellular solution for screening Late INa is composed of: 140 mM NaCl, 4 mM KCl, 1.8 mM CaCl2, 0.75 mM MgCl2 and 5 mM HEPES with pH adjusted to 7.4 using NaOH. The intracellular solution used to perfuse the inside of the cells for both the Late INa and Peak INa assays contains: 120 mM CsF, 20 mM CsCl, 5 mM EGTA, 5 mM HEPES and pH adjusted to 7.4 with CsOH. Compounds are diluted in extracellular solution to 1 μM in glass vials and then transferred to glass well plates before robotic addition to the cells. The 0 mM Na extracellular solution (0Na-ECF) used at the end of each experiment for the Late INa and Peak INa assays to measure baseline current contains: 140 mM N-methyl-D-glucamine; 4 mM KCl; 1.8 mM CaCl2; 0.75 mM MgCl2; 5 mM HEPES and pH was adjusted to 7.4 with HCl.
For the Late INa assay, sodium channels are activated every 10 seconds (0.1 Hz) by depolarizing the cell membrane to −20 mV for 250 milliseconds (ms) from a holding potential of −120 mV. In response to a −20 mV voltage step, typical hNav1.5 sodium currents activate rapidly to a peak negative current and then inactivate nearly completely within 3-4 ms.
Compounds were tested to determine their activity in blocking the late sodium current. Late INa was generated by adding 10 μM Tefluthrin (pyrethroid) to the extracellular solution while recording Na currents. […] ATX-II and tefluthrin occupy distinct, non-overlapping binding sites and modify Na^+ channel function differently to increase late INa. […] After establishing the whole cell recording configuration, late INa activator is added to each well 4 times over a 16-17 minute period so that the late component of the Na current reaches a stable value.
Results are reported as percent block of late INa.
Background: The patch-clamp technique gives a direct electrical read-out from membranes.
Take `O=C1c2cc(-c3ccc(C(F)(F)F)cc3F)ccc2OCCN1Cc1ncccn1` [Compound 11-105]: the “inhibited (or reduced) the late sodium current” value is 45%.

The same experiment, now with this note: HEK293, percent block of late INa; compound at 1 μM; 10 μM Tefluthrin; read-out: Late INa 1 μM.
`O=C1c2cc(-c3ccc(OC4CC4)cc3)ccc2OCCN1Cc1ncccn1` [II-102, 7-(4-cyclopropoxyphenyl)-4-(pyrimidin-2-ylmethyl)-3,4-dihydrobenzo[f][1,4]oxazepin-5(2H)-one]: the inhibition at 1 µM came to 21%. On the same count and under the same terms, in the case of `N[C@@H]1C[C@H]2COc3ccc(-c4ccc(C(F)(F)F)cc4)cc3C(=O)N2C1` [II-21, (2R,11aS)-2-amino-7-(4-(trifluoromethyl)phenyl)-2,3,11,11a-tetrahydrobenzo[f]pyrrolo[2,1-c][1,4]oxazepin-5(1H)-one] it was 18%; in that of `O=C1c2cc(-c3ccc(C(F)(F)F)s3)ccc2OCCN1Cc1ncccn1` [VI-37, 4-(pyrimidin-2-ylmethyl)-7-(5-(trifluoromethyl)thiophen-2-yl)-3,4-dihydrobenzo[f][1,4]oxazepin-5(2H)-one], 48%.

As to `O=C1c2cc(C3=CCCCC3)ccc2OCCN1Cc1ncccn1` [Compound V-3, 7-cyclohexenyl-4-(pyrimidin-2-ylmethyl)-3,4-dihydrobenzo[f][1,4]oxazepin-5(2H)-one], the inhibition at 1 µM was determined as 23%. In the case of `O=C(c1ccccc1)N1CCOc2ccc(-c3ccc(OC(F)(F)F)cc3)cc2C1` [III-4, phenyl(7-(4-(trifluoromethoxy)phenyl)-2,3-dihydrobenzo[f][1,4]oxazepin-4(5H)-yl)methanone], the inhibition at 1 µM came out at 35%. `O=C1c2cc(-c3ccc(OC(F)(F)F)cc3)ccc2OCCN1CCNS(=O)(=O)C1CC1` [II-179, N-(2-(5-oxo-7-(4-(trifluoromethoxy)phenyl)-2,3-dihydrobenzo[f][1,4]oxazepin-4(5H)-yl)ethyl)cyclopropanesulfonamide]: the inhibition at 1 µM was determined as 21%. On the same count and under the same terms, in the case of `O=C1c2cc(CCc3ccc(C(F)(F)F)cc3)ccc2OCCN1Cc1ncccc1F` [VIII-9, 4-((3-fluoropyridin-2-yl)methyl)-7-(4-(trifluoromethyl)phenethyl)-3,4-dihydrobenzo[f][1,4]oxazepin-5(2H)-one] it was 50%. On the same count and under the same terms, then `O=C1c2cc(-c3ccc(Oc4ccccc4)cc3)ccc2OCCN1Cc1ncccn1` [II-194, 7-(4-phenoxyphenyl)-4-(pyrimidin-2-ylmethyl)-3,4-dihydrobenzo[f][1,4]oxazepin-5(2H)-one], with 63%; and `CC(C)(C)Oc1cc(-c2ccc3c(c2)C(=O)N(Cc2ccccn2)CCO3)ccn1` [VI-4, 7-(2-tert-butoxypyridin-4-yl)-4-(pyridin-2-ylmethyl)-3,4-dihydrobenzo[f][1,4]oxazepin-5(2H)-one], with 36%; and `O=C1c2cc(Oc3ccc(OC(F)(F)F)cc3)ccc2OCCN1Cc1ncccn1` [XIII-2, 4-(pyrimidin-2-ylmethyl)-7-(4-(trifluoromethoxy)phenoxy)-3,4-dihydrobenzo[f][1,4]oxazepin-5(2H)-one], with 19%.

In the case of `O=C1c2cc(-c3ccc(C(F)(F)F)cc3)ccc2OC[C@H]2CN(Cc3ncccn3)CCN12` [II-8, (R)-2-(pyrimidin-2-ylmethyl)-8-(4-(trifluoromethyl)phenyl)-3,4,12,12a-tetrahydro-1H-benzo[f]pyrazino[2,1-c][1,4]oxazepin-6(2H)-one], the inhibition at 1 µM was 21%.

With `O=C(c1cccnn1)N1CCOc2ccc(-c3ccc(OC(F)(F)F)cc3)cc2C1` [III-24, pyridazin-3-yl(7-(4-(trifluoromethoxy)phenyl)-2,3-dihydrobenzo[f][1,4]oxazepin-4(5H)-yl)methanone], the inhibition at 1 µM is 17%.

On to `C[C@H](c1ncccn1)N1CCOc2ccc(-c3ccc(C(F)(F)F)cc3)cc2C1=O` [II-95, (R)-4-(1-(pyrimidin-2-yl)ethyl)-7-(4-(trifluoromethyl)phenyl)-3,4-dihydrobenzo[f][1,4]oxazepin-5(2H)-one], for which the inhibition at 1 µM worked out at 19%. Take `O=C1c2cc(-c3ccc(OCC(F)(F)F)c(F)c3)ccc2OCCN1Cc1ncccn1` [II-106, 7-(3-fluoro-4-(2,2,2-trifluoroethoxy)phenyl)-4-(pyrimidin-2-ylmethyl)-3,4-dihydrobenzo[f][1,4]oxazepin-5(2H)-one]: the inhibition at 1 µM worked out at 18%. In the case of `O=S1(=O)c2cc(-c3ccc(C(F)(F)F)cc3)ccc2OCCN1Cc1ncccn1` [IX-2, 2-((pyrimidin-2-yl)methyl)-8-(4-(trifluoromethyl)phenyl)-3,4-dihydro-2H-benzo[b][1,4,5]oxathiazepin-sulfone], the inhibition at 1 µM stood at 22%. With `O=C1c2cc(-c3ccc(Oc4ccc(F)cc4)cc3)ccc2OCCN1Cc1ncccn1` [II-193, 7-(4-(4-fluorophenoxy)phenyl)-4-(pyrimidin-2-ylmethyl)-3,4-dihydrobenzo[f][1,4]oxazepin-5(2H)-one], the inhibition at 1 µM was determined as 70%. Still for that read-out and setting: in the case of `O=C1c2cc(-c3ccc(OC(F)(F)F)cc3)ccc2OCCN1CCOc1ncccn1` [II-69, 4-(2-(pyrimidin-2-yloxy)ethyl)-7-(4-(trifluoromethoxy)phenyl)-3,4-dihydrobenzo[f][1,4]oxazepin-5(2H)-one] it was 33%. In the case of `O=C1c2cc(-c3ccc(OC(F)(F)F)cc3)ccc2OCCN1Cc1cccnc1` [II-70, 4-(pyridin-3-ylmethyl)-7-(4-(trifluoromethoxy)phenyl)-3,4-dihydrobenzo[f][1,4]oxazepin-5(2H)-one], the inhibition at 1 µM was 37%. For `O=C1c2cc(-c3ccc(C(F)F)cc3)ccc2OCCN1Cc1ncccn1` [II-124, 7-(4-(difluoromethyl)phenyl)-4-(pyrimidin-2-ylmethyl)-3,4-dihydrobenzo[f][1,4]oxazepin-5(2H)-one], the inhibition at 1 µM was determined as 17%. Same read-out and setting: in the case of `O=C1c2cc(Nc3ccc(C(F)(F)F)cc3)ccc2OCCN1Cc1ncccn1` [XIII-3, 4-(pyrimidin-2-ylmethyl)-7-(4-(trifluoromethyl)phenylamino)-3,4-dihydrobenzo[f][1,4]oxazepin-5(2H)-one] it was 17%; in that of `CCN1CCN2C(=O)c3cc(-c4ccc(C(F)(F)F)cc4)ccc3OC[C@@H]2C1` [II-25, (S)-2-ethyl-8-(4-(trifluoromethyl)phenyl)-3,4,12,12a-tetrahydro-1H-benzo[f]pyrazino[2,1-c][1,4]oxazepin-6(2H)-one], 25%; in that of `Cn1cnc(CN2CCOc3ccc(-c4ccc(OC(F)(F)F)cc4)cc3C2=O)c1` [II-154, 4-((1-methyl-1H-imidazol-4-yl)methyl)-7-(4-(trifluoromethoxy)phenyl)-3,4-dihydrobenzo[f][1,4]oxazepin-5(2H)-one], 25%. On to `O=C1c2cc(-c3ccc(C(F)(F)F)cc3)ccc2OC[C@H]2CCCN12` [II-59, (R)-7-(4-(trifluoromethyl)phenyl)-2,3,11,11a-tetrahydrobenzo[f]pyrrolo[2,1-c][1,4]oxazepin-5(1H)-one], for which the inhibition at 1 µM stood at 15%.

For `O=C1c2cc(/C=C/c3ccc(C(F)(F)F)cc3)ccc2OCCN1Cc1ccccc1` [VIII-10, (E)-4-benzyl-7-(4-(trifluoromethyl)styryl)-3,4-dihydrobenzo[f][1,4]oxazepin-5(2H)-one], the inhibition at 1 µM was 25%. As for `O=C(Cc1ncccn1)N1CCOc2ccc(-c3ccc(C(F)(F)F)cc3)cc2C1` [III-30, 2-(pyrimidin-2-yl)-1-(7-(4-(trifluoromethyl)phenyl)-2,3-dihydrobenzo[f][1,4]oxazepin-4(5H)-yl)ethanone], the inhibition at 1 µM came to 16%.
